pEC50: −log10 of the molar value. Where two headings read alike, the source gives them in different places.
Columns and labels:
HSV-1 strain WT-51 = experiment: Cutaneously HSV-1-infected hairless mice model; format: in vivo, hairless mice [HR-1]; conditions: oral, methyl cellulose suspension, 10 mg/kg twice daily for 5 days; from AUC of mean composite disease score over 17 days
Method: Female hairless mice [HR-1, 7 weeks of age] were infected with a virus suspension containing HSV-1 strain WT-51 (1.5×10^4 PFU/15 μl) on the lateral side of the body, which had scratched with a needle, while anesthetized with diethyl ether, as previously described by H. Machida et al. [Antiviral Res., 1992, 17, 133-143]. Tested compounds were administered orally as a methyl cellulose suspension, except for compounds marked with asterisk which were dissolved in 20% Cremophor EL and 20% polyethylene glycol, starting at 3 hours after the infection, and then at a dose of 10 mg/kg twice daily for a period of 5 days. Hairless mice were inspected daily and disease severity was determined using the following criteria: • Score 0: no signs of infection. • Score 1: localized, barely perceptible small vesicles. • Score 2: slight vesicle spread. • Score 3: large patches of vesicles formed. • Score 4: zosteriform vesicles. • Score 5: large patches of ulcers formed. • Score 6: zosteriform with severe large ulcers. • Score 7: hind limb paralysis or death.
The zosteriform skin lesion and neurological scores for each animal were combined to produce a composite score. The mean composite score was used to represent the disease in each study group. The disease course was measured for 17 days and the extent of the disease was represented by the area under the curve (AUC) of the mean daily composite disease score each day after viral inoculation. The inhibitory activities of tested compounds were calculated using the AUCs.

HSV-1 (strain KOS) = experiment: Anti-HSV-1 activity assay (MTT, MRC-5 cells); format: cell-based; conditions: HSV-1 strain KOS in MRC-5 cells, 5 days culture, read-out: EC50 value (suppression of cellular death of MRC-5 cells via HSV-1 replication)
Method: 10,000 MRC-5 cells were inoculated and cultured in a 96-well microtiter plate, using the growth culture medium in 5% CO2 at 37° C. for 4 to 5 days until a monolayer was formed. After the cells were washed with the maintenance culture medium, 100 μl of the maintenance culture medium dissolving therein an appropriate concentration of a test reagent was added to each well. Immediately after the test drug was added, an HSV-1 (strain KOS) solution was inoculated at 50 TCID50 (50% tissue culture infectious dose)/100 μl. After the cells were cultured in 5% CO2 at 37° C. for 5 days, 20 μl of MTT solution [3-(4,5-dimethyl-2-thiazolyl)-2,5-diphenyl-2H-tetrazolium bromide; Sigma] (diluted with PBS to 7.5 mg/ml) was added to each well, for another 24-hour incubation. After the culture medium was discarded, 100 μl of a solvent (prepared by adding 10% (v/v) Triton X 100 and 0.4% hydrochloric acid to isopropanol) was added to each well, to solubilize the generated formazan. The absorbance at 540 nm or 690 nm was measured with a microplate reader. Based on the suppression ratio (%) of the cellular death of the MRC-5 cell via HSV-1 replication, the EC50 value of the test drug was calculated.

VZV (strain CaQu) = experiment: Anti-VZV activity assay (plaque reduction in HEF cells); format: cell-based, varicella zoster virus
Method: This experiment was carried out based on the method described by Shigeta S., The Journal of Infectious Diseases, 147, 3, 576-584 (1983). Briefly, 10,000 human embryonic fibroblast (HEF) cells were inoculated in a 96-well microtiter plate, using a growth culture medium [Eagle MEM (Nissui) supplemented with 10% (v/v) fetal bovine serum (FBS; Sigma)], for culturing in 5% CO2 at 37° C. for 4 days until a monolayer was formed. After the cells were washed with a maintenance culture medium (MEM supplemented with 2% FBS), VZV (strain CaQu) preliminarily diluted to 20 to 30 pfu/100 μl with the maintenance culture medium was inoculated at 100 μl/well. The plate was centrifuged at 2,000 rpm at ambient temperature for 20 minutes and was then incubated in 5% CO2 at 37° C. for 3 hours, for infection with VZV. After the plate was washed three times with the maintenance culture medium, 100 μl of a test drug diluted to an appropriate concentration with the maintenance culture medium was added to each well. After the cells were cultured in 5% CO2 at 37° C. for 3 to 4 days, 10% formalin/PBS was added at 100 μl/well to fix the cells for 2 to 3 hours. After discarding the fixing solution and culture supernatant and subsequently washing the plate with water, a staining solution (0.025% Crystal Violet) was added at 50 μl/well for staining for 2 to 3 minutes, and then, the plate was washed with water and dried at 37° C. Cellular death is induced in the HEF cells infected with VZV, so that plaques of the dead cells are formed in the monolayer of the HEF cells.

[1] = Human alphaherpesvirus 1, MRC5, 120 h
[2] = Human alphaherpesvirus 3, read-out: EC50 value (concentration to inhibit 50% of the plaques), plaque count after 3 to 4 days

Row | Compound | Inhibitory activity (%) (HSV-1 strain WT-51) | pEC50 (HSV-1 (strain KOS); [1]) | pEC50 (VZV (strain CaQu); [2]) | pEC50 (HSV-1 (strain KOS)) | pEC50 (VZV (strain CaQu); read-out: EC50 value (concentration to inhibit 50% of the plaques), plaque count after 3 to 4 days)
1 | Cc1ccc(N(CC(=O)Nc2ccc(-c3cocn3)cc2)C(=O)C2CCS(=O)(=O)CC2)cc1 [Example 2, N-(4-methylphenyl)-N-(2-{[4-(1,3-oxazol-4-yl)phenyl]amino}-2-oxoethyl)tetrahydro-2H-thiopyran-4-carboxamide 1,1-dioxide] | 85 | – | – | – | –
2 | Cc1cc(N(CC(=O)Nc2ccc(-c3ncon3)cc2)C(=O)C2CCS(=O)(=O)CC2)ccc1Cl [Example 37, N-(4-chloro-3-methylphenyl)-N-(2-{[4-(1,2,4-oxadiazol-3-yl)phenyl]amino}-2-oxoethyl)tetrahydro-2H-thiopyran-4-carboxamide 1,1-dioxide] | – | 7.59 | 7.02 | – | –
3 | Cc1cccc(N(CC(=O)Nc2ccc(-c3ncon3)cc2)C(=O)C2CCS(=O)(=O)CC2)c1C [Example 24, N-(2,3-dimethylphenyl)-N-(2-{[4-(1,2,4-oxadiazol-3-yl)phenyl]amino}-2-oxoethyl)tetrahydro-2H-thiopyran-4-carboxamide 1,1-dioxide] | 69 | – | – | – | –
4 | Cc1cc(N(CC(=O)Nc2ccc(-c3cocn3)cc2)C(=O)C2CCS(=O)(=O)CC2)ccc1Cl [Example 13, N-(4-chloro-3-methylphenyl)-N-(2-{[4-(1,3-oxazol-4-yl)phenyl]amino}-2-oxoethyl)tetrahydro-2H-thiopyran-4-carboxamide 1,1-dioxide] | – | 8.22 | 7.48 | – | –
5 | Cc1ccc(N(CC(=O)Nc2ccc(-c3ncon3)cc2)C(=O)C2CCS(=O)(=O)CC2)c(C)c1F [Example 39, N-(3-fluoro-2,4-dimethylphenyl)-N-(2-{[4-(1,2,4-oxadiazol-3-yl)phenyl]amino}-2-oxoethyl)tetrahydro-2H-thiopyran-4-carboxamide 1,1-dioxide] | – | 7.54 | 7.09 | – | –
6 | Cc1cccc(C)c1N(CC(=O)Nc1ccc(-c2ncon2)cc1)C(=O)C1CCS(=O)(=O)CC1 [Example 27, N-(2,6-dimethylphenyl)-N-(2-{[4-(1,2,4-oxadiazol-3-yl)phenyl]amino}-2-oxoethyl)tetrahydro-2H-thiopyran-4-carboxamide 1,1-dioxide] | 86 | 7.22 | 7.00 | – | –
7 | Nc1nc2c(ncn2COCCO)c(=O)[nH]1 [acyclovir, reference compound] | – | 6.32 | 5.47 | – | –
8 | O=C(CN(C(=O)C1CCS(=O)(=O)CC1)c1ccc2c(c1)CCC2)Nc1ccc(-c2cocn2)cc1 [Example 11] | 92 | – | – | 7.40 | 7.22
9 | Cc1cccc(C)c1N(CC(=O)Nc1ccc(-c2cocn2)cc1)C(=O)C1CCS(=O)(=O)CC1 [Example 1, N-(2,6-dimethylphenyl)-N-(2-{[4-(1,3-oxazol-4-yl)phenyl]amino}-2-oxoethyl)tetrahydro-2H-thiopyran-4-carboxamide 1,1-dioxide] | – | 7.12 | 7.12 | – | –

— US6903125B2, “Tetrahydro-2H-thiopyran-4-carboxamide derivative” (Yamanouchi Pharmaceutical Co., Ltd., priority 2003, dated 2005)
